The record followed here is ChEMBL document CHEMBL5360654, “Indazole as a Phenol Bioisostere: Structure-Affinity Relationships of GluN2B-Selective NMDA Receptor Antagonists” (J Med Chem, 2023).

As usually defined, the inhibition is the drop in the measured response relative to a control, in per cent. Broadly, the Ki is a measure of affinity in units of concentration, obtained from inhibition or displacement. One may read the logD as the decadic logarithm of the distribution of all forms, ionised or not, between an organic phase and buffer at a given pH. Low readings indicate lower lipophilicity, high ones higher lipophilicity. One may read the IC50 as the concentration that inhibits the measured activity by half.

Series [1] concerns the target Glutamate receptor ionotropic, NMDA 2B (Homo sapiens) (UniProt Q13224). The experiment in a line: Antagonist activity at GluN2B receptor (unknown origin) expressed in Xenopus oocytes coexpressing GluN1a at 10 uM at -70 mV holding potential in presence of (S)-glutamate/glycine by TEVC analysis relative to control. It is filed as cell-based. The settings on record: Oocyte, filed as antagonist.

The target is the same in series [2]. Put plainly: Antagonist activity at GluN2B receptor (unknown origin) expressed in Xenopus oocytes coexpressing GluN1a at 1 uM at -70 mV holding potential in presence of (S)-glutamate/glycine by TEVC analysis. The settings on record: Oocyte, filed as antagonist. It is filed as cell-based.
The target in series [3] is T1, Glutamate receptor ionotropic, NMDA 2B (Homo sapiens, UniProt Q05586+Q13224). The experiment in a line: Displacement of [3H]ifenprodil from human GluN2B expressed in mouse L-M(TK-) cell membrane coexpressing GluN1a assessed as inhibition constant measured after 120 mins by competitive binding assay. It is filed as cell membranes. On the technique in general: Displacement assays read how much labelled ligand stays bound in the presence of the test substance.

Series [4] addresses T2, Sigma intracellular receptor 2 (Rattus norvegicus, UniProt Q5U3Y7).
T2 sequence (Q5U3Y7 whole entry): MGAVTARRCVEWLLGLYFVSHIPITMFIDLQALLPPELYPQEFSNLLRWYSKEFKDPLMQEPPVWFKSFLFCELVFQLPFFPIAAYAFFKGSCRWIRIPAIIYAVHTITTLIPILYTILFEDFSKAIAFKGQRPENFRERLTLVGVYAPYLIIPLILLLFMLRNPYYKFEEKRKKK
Put plainly: Displacement of [3H]di-o-tolylguanidine from sigma2 receptor in rat liver membrane assessed as inhibition constant measured after 120 mins by scintillation counting method. It is filed as cell membranes.

Series [5] has as its target Sigma non-opioid intracellular receptor 1 (Cavia porcellus, UniProt Q60492). The experiment in a line: Displacement of [3H]-(+)-pentazocine from sigma1 receptor in guinea pig brain membrane assessed as inhibition constant measured after 120 mins by scintillation counting method. Type of series: cell membranes.
Series [6] is described as follows: Lipophilicity, log D of compound at pH 7.4 by LC-MS analysis. Type of series: physicochemical. The note with it: buffer.
In series [7] the target is Glutamate NMDA receptor; GRIN1/GRIN2B (Homo sapiens, UniProt Q05586+Q13224). The experiment in a line: Antagonist activity at GluN1A/GluN2B receptor (unknown origin) expressed in Xenopus oocytes by voltage clamp method. Type of series: cell-based, Oocyte.
Series [8] is described as follows: Drug metabolism in rat liver microsome assessed as formation of glucuronide metabolite (2S,3S,4S,5R,6S)-6-(4-(3-(4-(4-fluorobenzyl)piperidin-1-yl)prop-1-yn-1-yl)phenoxy)-3,4,5-trihydroxytetrahydro-2H-pyran-2-carboxylic acid in presence of NADPH/UDP-GA by LC-MS analysis. Type of series: ADME. The note with it: microsomes. On the technique in general: Liver microsomes are a subcellular fraction often used to study metabolism.

Series [9] in a line: Drug metabolism in rat liver microsome assessed as formation of glucuronide metabolite (2S,3S,4S,5R,6R)-6-(5-(3-(4-(4-fluorobenzyl)piperidin-1-yl)prop-1-yn-1-yl)-1H-indazol-1-yl)-3,4,5-trihydroxytetrahydro-2H-pyran-2-carboxylic acid in presence of NADPH/UDP-GA by LC-MS analysis. It is filed as ADME. The settings on record: microsomes.
Series [10] can be described thus: Drug metabolism in rat liver microsome assessed as formation of glucuronide metabolite (2S,3S,4S,5R,6S)-6-(4-((1R,2S)-3-(4-benzylpiperidin-1-yl)-1-hydroxy-2-methylpropyl)phenoxy)-3,4,5-trihydroxytetrahydro-2H-pyran-2-carboxylic acid in presence of NADPH/UDP-GA by LC-MS analysis. It is filed as ADME. The note with it: microsomes.
Series [11] is described as follows: Drug metabolism in rat liver microsome assessed as formation of glucuronide metabolite (2S,3S,4S,5R,6R)-6-(5-((R)-3-(4-benzylpiperidin-1-yl)-1-hydroxypropyl)-1H-indazol-1-yl)-3,4,5-trihydroxytetrahydro-2H-pyran-2-carboxylic acid in presence of NADPH/UDP-GA by LC-MS analysis. Type of series: ADME. The settings on record: microsomes.
The nature of series [12]: Metabolic stability in rat liver microsome assessed as intact compound incubated for 90 mins in presence of NADPH by LC-MS analysis. It is filed as ADME. The note with it: liver microsomes, read-out: Stability.
Series [13] addresses T1, Glutamate receptor ionotropic, NMDA 2B. Put plainly: Antagonist activity at GluN2B receptor (unknown origin) expressed in Xenopus oocytes coexpressing GluN1a at -70 mV holding potential in presence of (S)-glutamate/glycine by TEVC analysis. Type of series: cell-based, Oocyte.
Series [14] can be described thus: Drug metabolism in rat liver microsome assessed as formation of glucuronide metabolite (2S,3S,4S,5R,6R)-6-(5-((S)-3-(4-benzylpiperidin-1-yl)-1-hydroxypropyl)-1H-indazol-1-yl)-3,4,5-trihydroxytetrahydro-2H-pyran-2-carboxylic acid in presence of NADPH/UDP-GA by LC-MS analysis. The settings on record: microsomes. It is filed as ADME.

Calls of active or inactive are those of the source. The rule behind the calls is not given here.

Sigma non-opioid intracellular receptor 1, sequence (Q60492 whole entry): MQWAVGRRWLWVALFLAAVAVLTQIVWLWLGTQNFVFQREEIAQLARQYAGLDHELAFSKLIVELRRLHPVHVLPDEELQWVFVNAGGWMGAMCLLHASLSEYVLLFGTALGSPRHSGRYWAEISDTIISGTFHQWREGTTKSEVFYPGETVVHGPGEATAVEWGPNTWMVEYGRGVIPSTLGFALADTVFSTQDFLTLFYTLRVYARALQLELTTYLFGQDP
Glutamate receptor ionotropic, NMDA 2B (Homo sapiens), sequence (Q13224 27-1484 limits assumed): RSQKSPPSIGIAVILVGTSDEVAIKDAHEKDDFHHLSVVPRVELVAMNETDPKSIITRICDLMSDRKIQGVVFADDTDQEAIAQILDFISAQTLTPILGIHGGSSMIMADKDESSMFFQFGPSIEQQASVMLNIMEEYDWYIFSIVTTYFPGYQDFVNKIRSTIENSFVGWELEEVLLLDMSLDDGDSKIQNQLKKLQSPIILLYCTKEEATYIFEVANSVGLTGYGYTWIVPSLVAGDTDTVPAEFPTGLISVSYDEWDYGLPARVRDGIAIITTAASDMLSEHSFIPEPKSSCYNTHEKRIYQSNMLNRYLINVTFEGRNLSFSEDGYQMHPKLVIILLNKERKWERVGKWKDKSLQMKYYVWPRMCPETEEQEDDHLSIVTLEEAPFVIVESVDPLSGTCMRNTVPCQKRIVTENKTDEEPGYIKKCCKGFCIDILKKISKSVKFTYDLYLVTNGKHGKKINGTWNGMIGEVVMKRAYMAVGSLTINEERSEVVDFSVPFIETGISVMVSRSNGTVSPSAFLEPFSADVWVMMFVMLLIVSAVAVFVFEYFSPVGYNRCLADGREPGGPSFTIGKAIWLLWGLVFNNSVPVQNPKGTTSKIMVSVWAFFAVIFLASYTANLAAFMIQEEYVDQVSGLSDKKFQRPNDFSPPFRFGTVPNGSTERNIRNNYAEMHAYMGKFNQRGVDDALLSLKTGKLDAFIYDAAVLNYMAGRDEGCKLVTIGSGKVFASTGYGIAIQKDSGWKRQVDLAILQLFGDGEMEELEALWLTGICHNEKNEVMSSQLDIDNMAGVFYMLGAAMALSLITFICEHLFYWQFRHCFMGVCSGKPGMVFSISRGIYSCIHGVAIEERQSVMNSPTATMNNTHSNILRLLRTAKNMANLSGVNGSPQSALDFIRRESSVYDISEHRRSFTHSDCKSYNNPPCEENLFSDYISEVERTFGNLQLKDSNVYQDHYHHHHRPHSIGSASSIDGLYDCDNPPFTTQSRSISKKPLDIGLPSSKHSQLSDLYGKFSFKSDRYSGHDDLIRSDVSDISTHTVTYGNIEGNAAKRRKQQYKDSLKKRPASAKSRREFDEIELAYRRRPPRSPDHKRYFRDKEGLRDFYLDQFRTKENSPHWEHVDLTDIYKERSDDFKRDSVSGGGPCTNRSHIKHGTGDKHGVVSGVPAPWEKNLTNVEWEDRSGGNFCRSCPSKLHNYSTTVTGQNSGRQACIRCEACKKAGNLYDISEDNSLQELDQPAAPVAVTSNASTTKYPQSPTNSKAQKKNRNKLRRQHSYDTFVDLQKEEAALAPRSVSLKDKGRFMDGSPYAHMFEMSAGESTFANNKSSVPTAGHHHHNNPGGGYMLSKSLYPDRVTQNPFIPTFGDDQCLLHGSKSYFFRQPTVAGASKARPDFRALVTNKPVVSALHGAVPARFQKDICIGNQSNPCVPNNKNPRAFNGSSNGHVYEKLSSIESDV
T1 sequence (Q13224 whole entry, one chain of several): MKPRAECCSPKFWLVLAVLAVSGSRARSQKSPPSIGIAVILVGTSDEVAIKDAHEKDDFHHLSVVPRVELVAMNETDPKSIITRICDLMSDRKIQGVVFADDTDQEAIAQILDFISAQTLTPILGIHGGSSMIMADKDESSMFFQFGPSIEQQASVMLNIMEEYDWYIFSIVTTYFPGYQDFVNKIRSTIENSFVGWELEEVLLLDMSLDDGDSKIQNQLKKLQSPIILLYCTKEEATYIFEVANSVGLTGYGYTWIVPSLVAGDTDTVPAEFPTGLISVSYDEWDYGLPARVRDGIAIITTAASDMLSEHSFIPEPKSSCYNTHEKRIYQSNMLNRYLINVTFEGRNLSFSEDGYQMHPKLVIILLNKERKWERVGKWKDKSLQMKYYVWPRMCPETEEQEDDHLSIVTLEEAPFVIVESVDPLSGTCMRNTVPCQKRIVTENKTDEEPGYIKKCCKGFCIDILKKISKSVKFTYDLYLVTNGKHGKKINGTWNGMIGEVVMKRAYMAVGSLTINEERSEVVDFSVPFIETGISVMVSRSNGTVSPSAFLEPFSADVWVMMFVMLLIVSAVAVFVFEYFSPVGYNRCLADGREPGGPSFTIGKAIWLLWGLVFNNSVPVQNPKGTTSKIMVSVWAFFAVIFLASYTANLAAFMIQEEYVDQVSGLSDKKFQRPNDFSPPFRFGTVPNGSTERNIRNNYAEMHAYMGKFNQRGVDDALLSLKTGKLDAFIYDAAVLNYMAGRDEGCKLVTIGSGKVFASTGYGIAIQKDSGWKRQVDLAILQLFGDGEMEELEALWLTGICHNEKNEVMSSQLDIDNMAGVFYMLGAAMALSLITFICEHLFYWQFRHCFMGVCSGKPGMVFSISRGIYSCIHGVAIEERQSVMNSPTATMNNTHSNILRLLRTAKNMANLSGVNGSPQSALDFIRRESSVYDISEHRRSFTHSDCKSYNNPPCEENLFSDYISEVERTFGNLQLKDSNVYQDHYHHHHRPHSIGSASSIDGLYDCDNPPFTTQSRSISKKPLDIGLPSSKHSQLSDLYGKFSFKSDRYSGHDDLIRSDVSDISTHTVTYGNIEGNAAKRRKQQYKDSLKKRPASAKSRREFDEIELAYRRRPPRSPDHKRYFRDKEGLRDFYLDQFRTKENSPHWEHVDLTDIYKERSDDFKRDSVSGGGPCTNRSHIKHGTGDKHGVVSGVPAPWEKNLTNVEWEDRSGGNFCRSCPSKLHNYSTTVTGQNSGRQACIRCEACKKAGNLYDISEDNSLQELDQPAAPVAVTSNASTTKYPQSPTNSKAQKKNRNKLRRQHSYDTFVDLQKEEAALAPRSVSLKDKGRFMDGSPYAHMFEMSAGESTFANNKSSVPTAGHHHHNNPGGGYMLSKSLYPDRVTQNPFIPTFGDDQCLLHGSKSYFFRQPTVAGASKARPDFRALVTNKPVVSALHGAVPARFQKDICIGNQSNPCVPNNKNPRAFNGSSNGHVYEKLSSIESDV
Glutamate NMDA receptor; GRIN1/GRIN2B, sequence (Q13224 whole entry, other chains not shown): as the sequence (Q13224 whole entry, one chain of several) above

Consider `OC(CCN1CCC(Cc2ccccc2)CC1)c1ccc2[nH]ncc2c1` (stereo not given), for which the inhibition in series [1] was greater than 80%. The inhibition entry in series [2] was “Active”. Further, the Ki came to 38 nM in series [3], 88 nM in [4] and 55 nM in series [5]. Moreover, the logD in [6] came out at 1.75.
Turning to `c1ccc(CC2CCN(CCCc3ccc4[nH]ncc4c3)CC2)cc1`, the inhibition in [1] is greater than 80%. Besides, the Ki in series [3] was 5.7 nM; in series [4] it was 12 nM; in series [5] it was 7.5 nM. This compound displayed a logD in [6] of 2.63.
For `Fc1ccccc1CC1CCN(CC#Cc2ccc3[nH]ncc3c2)CC1`, the values for the inhibition constant Ki in series [3], in [4] and in series [5] were 25 nM, 31 nM and 57 nM, respectively.
`Oc1ccc(C#CCN2CCC(Cc3ccccc3)CC2)cc1`: the midpoint of inhibition in series [7], the IC50, lay at 100 nM.
As to `O=C(CCN1CCC(Cc2ccccc2F)CC1)c1ccc2[nH]ncc2c1`, the Ki in series [3] turned out to be 20 nM; in [4], 19 nM; in series [5] it was 17 nM.
Turning to `Oc1ccc(C#CCN2CCC(Cc3ccc(F)cc3)CC2)cc1`, the Drug metabolism result in [8] was “Metabolite_Detected”. Moreover, the Ki came out at 12 nM in series [3], 37 nM in series [4] and 36 nM in [5]. This compound had a logD in [6] of 4.4.
Take `OC(CCN1CCC(Cc2ccc(F)cc2)CC1)c1ccc2[nH]ncc2c1` (stereo not given): the Ki came out at 32 nM in series [3], 18 nM in series [4] and 12 nM in series [5]. In series [6], this compound had a logD of 2.02.
Consider `Cn1ncc2cc(C#CCN3CCC(Cc4ccccc4)CC3)ccc21`, for which the Ki in [3] was 38 nM; in [4] it was 320 nM; in series [5], 20 nM.
On to `Fc1ccc(CC2CCN(CC#Cc3ccc4[nH]ncc4c3)CC2)cc1`, for which the Drug metabolism result in series [9] is listed as “Metabolite_Notdetected”. Also, the results for the Ki in [3], in series [4] and in [5] were 13 nM, 13 nM and 6.6 nM, respectively. Besides, the log distribution coefficient (logD) in series [6] turned out to be 4.35.
As for `Fc1ccc(CC2CCN(CCCc3ccc4[nH]ncc4c3)CC2)cc1`, the Ki stood at 13 nM in series [3], 14 nM in series [4] and 4.2 nM in series [5].
Turning to `Cn1cc2cc(C#CCN3CCC(Cc4ccc(F)cc4)CC3)ccc2n1`, the figures for the Ki in [3], in series [4] and in [5] were 182 nM, 151 nM and 32 nM, respectively.
Regarding `C(=C/c1ccc2[nH]ncc2c1)/CN1CCC(Cc2ccccc2)CC1`, the Ki was 120 nM in series [3], 135 nM in series [4] and 562 nM in series [5].
As to `C(#Cc1ccc2cn[nH]c2c1)CN1CCC(Cc2ccccc2)CC1`, the Ki stood at 53 nM in series [3], 520 nM in [4] and 12 nM in [5].
`O=C(CCN1CCC(Cc2ccc(F)cc2)CC1)c1ccc2[nH]ncc2c1`: the Ki in series [3] turned out to be 56 nM; in [4] it was 51 nM; in series [5], 21 nM.
Taken in the same sequence, the figures for `Fc1ccc(CC2CCN(C/C=C\c3ccc4[nH]ncc4c3)CC2)cc1` were 42 nM, 97 nM and 77 nM.
On the same counts, the results for `C(=C\c1ccc2[nH]ncc2c1)/CN1CCC(Cc2ccccc2)CC1` are 6.6 nM, 10 nM and 2.7 nM.
Consider `OC(CCN1CCC(Cc2ccccc2F)CC1)c1ccc2[nH]ncc2c1` (stereo not given), for which the Ki in series [3] came to 38 nM; in series [4], 119 nM; in series [5] it was 224 nM.
For `C[C@@H](CN1CCC(Cc2ccccc2)CC1)[C@@H](O)c1ccc(O)cc1`, in [10], the Drug metabolism result was “Metabolite_Detected”.
Turning to `Cn1ncc2cc(C#CCN3CCC(Cc4ccc(F)cc4)CC3)ccc21`, the Ki in series [3] came to 29 nM; in series [4], 63 nM; in [5] it was 40 nM.
`Cn1cc2cc(C#CCN3CCC(Cc4ccccc4)CC3)ccc2n1`: the Ki in series [3] was determined as 136 nM; in series [4], 63 nM; in series [5], 23 nM.
In the case of `O=C(CCN1CCC(Cc2ccccc2)CC1)c1ccc2[nH]ncc2c1`, the inhibition in series [1] is greater than 80%. Further, in series [2], the inhibition result is “Active”. Moreover, the values for the Ki in series [3], in [4] and in series [5] were 18 nM, 18 nM and 8.8 nM, respectively. Besides, the logD in series [6] was 2.64.
In the case of `Fc1ccc(CC2CCN(CC#Cc3ccc4cn[nH]c4c3)CC2)cc1`, the results for the Ki in [3], in series [4] and in series [5] were 35 nM, 850 nM and 26 nM, respectively.
Consider `Fc1ccc(CC2CCN(C/C=C/c3ccc4[nH]ncc4c3)CC2)cc1`, for which the inhibition constant (Ki) in series [3] worked out at 20 nM; in [4], 37 nM; in [5], 10 nM.
In the case of `O[C@H](CCN1CCC(Cc2ccccc2)CC1)c1ccc2[nH]ncc2c1`, in series [11], the Drug metabolism entry is “Metabolite_Notdetected”. Moreover, the remaining at 1.5 h in series [12] is roughly 67%. Moreover, in [13], the half-maximal inhibitory concentration (IC50) was found to be 62 nM. Also, the figures for the Ki in [3], in series [4] and in series [5] were 265 nM, 241 nM and 58 nM, respectively.
`C(#Cc1ccc2[nH]ncc2c1)CN1CCC(Cc2ccccc2)CC1`: the IC50 in series [7] was 380 nM. For the same compound, the Ki in series [3] amounted to 11 nM; in [4], 11 nM; in series [5] it was 26 nM. Also, the logD in series [6] turned out to be 4.17.
Consider `O[C@@H](CCN1CCC(Cc2ccccc2)CC1)c1ccc2[nH]ncc2c1`, for which the Drug metabolism result in [14] is on record as “Metabolite_Notdetected”. In series [12], the remaining at 1.5 h was roughly 67%. For the same compound, in series [13], the IC50 came to 72 nM. In addition, the Ki came out at 93 nM in series [3], 124 nM in series [4] and 86 nM in series [5].
